Data reported in US20240390446A1, “COMPOSITIONS AND METHODS FOR TREATING OR PREVENTING INFLAMMATORY DISEASES INCLUDING DIABETES AND THYROID DISEASES” (priority 2021, published 2024).

Test: Case report: blood glucose levels in pregnant with gestational diabetes given sesame oil and Nigella sativa oil
Format: in vivo, human
Description: A pregnant person diagnosed with gestational diabetes and treated with […] was administered daily with 5 ml sesame oil 100% w/v ([…]) and then co-administered with 5 ml sesame oil 100% w/v (Naissance) and 5 ml 100% w/v Nigella sativa oil (Better Flex). During oil treatment glucamin was not administered.
Blood glucose levels (mg/dL) were determined at the indicated hours.

NC(=O)CC[C@H](N)C(=O)O [glutamin]
Blood glucose levels (6 AM, 10 Sep. 2020): 172 mg/dL
Blood glucose levels (6 AM, 11 Sep. 2020): 125 mg/dL
Blood glucose levels (6 AM, 12 Sep. 2020): 101 mg/dL
Blood glucose levels (6 AM, 13 Sep. 2020): 113 mg/dL
Blood glucose levels (6 AM, 14 Sep. 2020): 94 mg/dL
Blood glucose levels (6 AM, 15 Sep. 2020): 158 mg/dL
Blood glucose levels (6 AM, 16 Sep. 2020): 148 mg/dL
Blood glucose levels (6 AM, 17 Sep. 2020): 99 mg/dL
Blood glucose levels (6 AM, 18 Sep. 2020): 94 mg/dL
Blood glucose levels (11 AM, 10 Sep. 2020): 154 mg/dL
Blood glucose levels (11 AM, 11 Sep. 2020): 109 mg/dL
Blood glucose levels (11 AM, 12 Sep. 2020): 88 mg/dL
Blood glucose levels (11 AM, 13 Sep. 2020): 84 mg/dL
Blood glucose levels (11 AM, 14 Sep. 2020): 90 mg/dL
Blood glucose levels (11 AM, 15 Sep. 2020): 159 mg/dL
Blood glucose levels (11 AM, 17 Sep. 2020): 124 mg/dL
Blood glucose levels (11 AM, 18 Sep. 2020): 84 mg/dL
Blood glucose levels (15 PM, 10 Sep. 2020): 122 mg/dL
Blood glucose levels (15 PM, 11 Sep. 2020): 126 mg/dL
Blood glucose levels (15 PM, 12 Sep. 2020): 106 mg/dL
Blood glucose levels (15 PM, 13 Sep. 2020): 125 mg/dL
Blood glucose levels (15 PM, 14 Sep. 2020): 134 mg/dL
Blood glucose levels (15 PM, 15 Sep. 2020): 98 mg/dL
Blood glucose levels (15 PM, 16 Sep. 2020): 154 mg/dL
Blood glucose levels (15 PM, 17 Sep. 2020): 90 mg/dL
Blood glucose levels (15 PM, 18 Sep. 2020): 89 mg/dL
Blood glucose levels (15 PM, 21 Sep. 2020): 109 mg/dL
Blood glucose levels (21 PM, 10 Sep. 2020): 97 mg/dL
Blood glucose levels (21 PM, 11 Sep. 2020): 103 mg/dL
Blood glucose levels (21 PM, 12 Sep. 2020): 95 mg/dL
Blood glucose levels (21 PM, 13 Sep. 2020): 80 mg/dL
Blood glucose levels (21 PM, 14 Sep. 2020): 125 mg/dL
Blood glucose levels (21 PM, 15 Sep. 2020): 83 mg/dL
Blood glucose levels (21 PM, 16 Sep. 2020): 88 mg/dL
Blood glucose levels (21 PM, 17 Sep. 2020): 77 mg/dL
Blood glucose levels (21 PM, 18 Sep. 2020): 84 mg/dL
Blood glucose levels (21 PM, 21 Sep. 2020): 74 mg/dL
